{"source": "patent US8361984B2", "about": "“Small interfering RNAs and methods for prevention, inhibition and/or treatment of malignant progression of breast cancer” (Taipei Medical University, priority 2011, dated 2013)", "key": {"[1]": {"system": "MDA-MB-231 cells", "test": "MTT cell proliferation assay in MDA-MB-231 cells (parental, Sc, Si α5, Si α9)", "assay_type": "cell-based, human", "text": "A) Detection of nAChR subunits by reverse transcription-polymerase chain reaction (RT-PCR) in normal and cancerous human breast cell lines. MCF-7, MDA-MB-231, AU-565, MDA-MB-453, and BT-483 are transformed human breast cancer cells; MCF-10A and HBL-100 are considered normal human breast cells. The expression profiles of nAChR subunits in human SAEC (small airway epithelial), NHBE (normal human bronchial epithelial), and H157 (lung cancer) cells were also examined as described previously (West K A, Brognard J, Clark A S, et al. J Clin Invest 2003; 111(1):81-90). B) Relative mRNA expression of different nAChR subunits in normal and tumor human breast tissues isolated from 50 breast cancer patients. The cDNA was used for RT-PCR analysis and the experiment was repeated twice. Percent of occurrence is shown. C) Expression of the α5 and α9 nAChR subunits in stable MDA-MB-231 cell lines that express α9-nAChR (Si α9), α5-nAChR (Si α5), or scrambled (Sc) short interfering RNAs (siRNAs). […] Levels of α5 and α9 mRNAs were determined by RT-PCR, and levels of the α5 and α9 proteins by western blotting (WB). In each case, glyceraldehyde 3-phosphate dehydrogenase (GADPH) expression served as a control. D) Cell proliferation in Si α5, Sc, and parental MDA-MB-231 cells treated with dimethylsulfoxide DMSO vs nicotine, and in cells treated with DMSO vs the nicotine metabolite, 4-(methylnitrosamino)-1-(3-pyridyl)-1-butanone (NNK). Parental MDA-MB-231 cells (231) and 231 cells stably transformed the Si α5-, Sc-, or Si α9-siRNAs were treated with either nicotine (10 μM), NNK (1 μM), or vehicle alone in the absence of continued G418 selection afterwards. […] Cell proliferation was measured by the 3-(4,5-dimethylthiazol-2-yl)-2,5-diphenyltetrazolium (MTT) assay, in which a greater number of cells was reflected by an increased OD540 nm at the indicated time points. The experiment was repeated four times with duplicate samples. Data points represent the mean; error bars indicate 95% confidence intervals. The data were analyzed by nonparametric two-sided tests (Kruskal-Wallis and Mann-Whitney tests). […] E) Confocal microscopy of α9-nAChR expression in human breast cancer (MCF-7) cells. Immunofluorescence with a fluorescein isothiocyate-conjugated secondary antibody was used to detect the α9-nAChR, whereas a rhodamine-conjugated fluorescent antibody was used for caveolin-1 labeling. Localization of α9-nAChR (left, green), the membrane protein caveolin-1 (middle, red), and the merged image (right, yellow) are shown. Scale bar=25 μm. F) Dose-dependent binding of [^3H]-nicotine to the endogenous α9-nAChR receptor in human breast cancer MDA-MB-231 cells (left panel) and time-dependent [^3H]-nicotine binding in parental MDA-MB-231 cells (231), or in 231 cells stably transformed with α9-nAChR siRNA (Si α9) or scrambled control (Sc) siRNA (right panel). The experiment was repeated four times with duplicate samples. Data points represent the mean; error bars indicate the 95% confidence intervals. […] G) Analysis of α9-nicotinic acetylcholine receptor (α9-nAChR) expression in human breast carcinoma tissues. Determination of α9-nAChR mRNA levels using reverse transcription-polymerase chain reaction (RT-PCR). […] PCR was performed for 30 cycles.\n(§1) Cell growth, proliferation, and viability were determined using the 3-(4,5-dimethylthiazol-2-yl)-2,5-diphenyltetrazolium (MTT) assay (Chou Y H, Ho Y S, Wu C C, et al. Food Chem Toxicol 2007; 45(8):1356-67.) Stock solutions of 10 mM nicotine and NNK (Chemsyn, Lenexa, Kans.) were prepared in dimethyl sulfoxide (DMSO). This assay was repeated four times with duplicate samples."}, "[2]": {"system": "MCF-10A (DOX) cells", "test": "MTT cell proliferation assay in MCF-10A (DOX) cells", "assay_type": "cell-based, human", "details": "nicotine 10 μM, NNK 1 μM; DOX+ vs DOX− cells", "method": "Data points represent the mean; error bars indicate 95% confidence intervals. […] The experiment was repeated four times with duplicate samples. […] After transplantation, mice bearing tumors were treated with DOX (0.5 mg/mL) via drinking water for 14 days. After that, all mice bearing tumors (200 mm^3) were divided into either α9-nAChR mRNA expressing (DOX−) or non-expressing (DOX+) groups in the presence or absence of nicotine (10 mg/mL) in their drinking water (n=5, per group). […] Error bars represent 95% confidence intervals.\nas §1"}, "[3]": {"system": "MDA-MB-231 cells", "test": "Soft agar growth assay of MDA-MB-231 cells", "assay_type": "cell-based, human", "details": "parental MDA-MB-231 cells; nicotine 10 μM or NNK 1 μM", "text": "(§2) The experiment was repeated four times with duplicate samples.\nThe assay was repeated four times with duplicate samples."}, "[4]": {"system": "MCF-10A (DOX) cells", "test": "Long-term transformation of MCF-10A (DOX) cells, soft agar colony formation", "assay_type": "cell-based, human", "details": "soft agar 21 days", "source_text": "Anchorage-independent growth of α9-nAChR overexpressing (MCF-10A-Nic (DOX) and MCF-10A-NNK (DOX)) and siRNA-expressing MDA MB-231 Si α5, Si α9, and Sc cells were examined in soft agar assays. The base layer consisted of 0.9% low-melting point SeaPlaque agarose (Sigma, St. Louis, Mo.) in complete MCF-10A culture medium. Soft agar was composed of 0.4% SeaPlaque agarose in complete DMEM and F12 culture medium was mixed with 1×10^4 cells and plated on top of the base layer in 60-mm-diameter culture dishes. […] Soft agar cultures were maintained at 37° C. for an additional 21 days and observed for the appearance of colonies with a Leica DMI 4000B Microscope Imaging System (Leica Microsystems, Wetzlar, Germany). The assay was repeated four times with duplicate samples."}, "[5]": {"molecular_target": "T1, endogenous α9-nAChR receptor in human breast cancer MDA-MB-231 cells (Homo sapiens, UniProt Q9UGM1)", "T1 construct": "endogenous α9-nAChR receptor in human breast cancer MDA-MB-231 cells; endogenous in cells; host or cells: MDA-MB-231 (parental, Sc and Si α9 clones)", "T1 sequence (Q9UGM1 26-479 limits assumed)": "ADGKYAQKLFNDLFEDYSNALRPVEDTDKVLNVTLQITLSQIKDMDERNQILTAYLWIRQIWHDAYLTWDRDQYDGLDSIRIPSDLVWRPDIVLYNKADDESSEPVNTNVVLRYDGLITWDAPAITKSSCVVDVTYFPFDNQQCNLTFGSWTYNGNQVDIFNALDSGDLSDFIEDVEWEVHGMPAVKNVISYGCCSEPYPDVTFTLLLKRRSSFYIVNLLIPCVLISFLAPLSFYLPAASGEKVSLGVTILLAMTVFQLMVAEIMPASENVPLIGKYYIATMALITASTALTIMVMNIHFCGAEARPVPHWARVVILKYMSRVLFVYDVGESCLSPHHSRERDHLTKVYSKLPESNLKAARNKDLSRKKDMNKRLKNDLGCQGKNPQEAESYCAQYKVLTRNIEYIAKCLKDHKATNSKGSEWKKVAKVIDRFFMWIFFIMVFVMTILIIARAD", "test": "[^3H]-nicotine equilibrium binding in MDA-MB-231 cells", "method": "L-(−)-[N-methyl-^3H]-nicotine (71-75 Ci/mmol) was purchased from Dupont/NEN Research Products (Boston, Mass.), and free base nicotine (99% pure) was purchased from the Eastman Kodak Co. (Rochester, N.Y.). To study the uptake of [^3H]-nicotine in MDA-MB-231 cell monolayers (2×10^6 cells per well), cells were rinsed three times with a buffer containing 140 mM NaCl, 5.4 mM KCl, 1.8 mM CaCl2, 0.8 mM MgSO4, 5 mM glucose, and 25 mM Hepes (pH 7.4). Saturation binding studies were conducted for 2 hours at 37° C. in six-well plates, and used at least eight different concentrations of [^3H]-nicotine ranging from 1 to 15 nM. Time-dependent association kinetic studies in MDA-MB-231, Si α9, Sc cells were conducted using a single concentration of [^3H]-nicotine (7 nM) for treatments of 5, 10, 15, 30, 60 and 90 minutes. For determination of nonspecific binding, 10 μM unlabeled nicotine was pre-added to medium, after which cells were washed three times with ice-cold buffer and then exposed to [^3H]-nicotine. [^3H]-nicotine uptake was stopped by aspiration of the uptake medium and washing the wells three times with ice-cold buffer. The cells were lysed in 1 mL of 0.5% Triton X-100, and aliquots of the cell lysates were transferred to scintillation vials to determine the incorporated radioactivity by scintillation counting. The assay was repeated four times with duplicate samples."}, "[6]": {"system": "MCF-10A-Nic (DOX) xenografts", "details": "after 7 weeks; for tumor volume: with nicotine 10 mg/mL drinking water", "method": "BALB/c-nu/nu mice (female, 4 weeks old, n=5 per group) purchased from National Science Council Animal Center, Taipei, were injected subcutaneously with MCF-10A-Nic (DOX) and vector control (5×10^6) cells. After transplantation, mice bearing tumors were treated with DOX (0.5 mg/mL) via drinking water for 14 days. After that, all mice bearing tumors (200 mm^3) were divided into either α9-nAChR mRNA expressing (DOX−) or non-induced (DOX+) groups, the latter of which could express the α9-nAChR mRNA at basal level. The mice were simultaneously treated with or without nicotine (10 mg/mL) in their drinking water for an additional 6 weeks. The xenografts were weighed and either snap-frozen in dry ice and stored at −80° C. for RNA and protein analysis or formalin-fixed and paraffin-embedded for immunohistochemical observation.\nExamination was conducted as to whether induction of α9-nAChR in the presence or absence of nicotine stimulation in vivo would effectively promote tumor growth (FIG. 6). BALB/c-nu/nu mice (female, 4 weeks old) were injected subcutaneously with transformed MCF-10A-Nic (DOX) cells (5×10^6). After that, all mice bearing tumors (200 mm^3) were divided into either α9-nAChR mRNA expressing (DOX−) or non-expressing (DOX+) groups in the presence or absence of nicotine (10 mg/mL) in their drinking water (n=5, per group)."}, "[7]": {"system": "MDA-MB-231 tumor xenografts", "test": "MDA-MB-231 α9-nAChR siRNA-expressing xenografts in NOD-SCID mice", "assay_type": "in vivo, mouse", "text": "as §2"}, "[8]": {"details": "Sc cells, day 11, nicotine 10 μM, NNK 1 μM"}, "[9]": {"details": "Si α5 cells, day 11, nicotine 10 μM, NNK 1 μM"}, "[10]": {"details": "nicotine-treated (10 mg/mL drinking water) mice with parental MDA-MB-231 tumors"}}, "note": "Where two headings read alike, the source gives them in different places."}
{"smiles": "CN(CCCC(=O)c1cccnc1)N=O", "note": "[NNK, 4-(methylnitrosamino)-1-(3-pyridyl)-1-butanone]", "values": [{"measurement": "difference in mean OD540 nm vs control (DMSO)", "setting": "[1]; [8]", "value": 1.00}, {"measurement": "mean OD540 nm", "setting": "[1]; [8]", "value": 1.77}, {"measurement": "difference in mean OD540 nm vs control (DMSO)", "setting": "[1]; [9]", "value": 0.99}, {"measurement": "mean OD540 nm", "setting": "[1]; [9]", "value": 1.78}, {"measurement": "induction of cell proliferation", "setting": "[2]", "value": "induced cell proliferation was observed only in the MCF-10A (DOX+) cell line"}, {"measurement": "no. of colonies in parental cells", "setting": "[3]", "value": 406, "unit": "colonies"}, {"measurement": "colonies formed, DOX− compared with DOX+ cells", "setting": "[4]; NNK 1 μM for 60 days", "value": "More colonies"}]}
{"smiles": "CN1CCCC1c1cccnc1", "note": "[[^3H]-nicotine, L-(−)-[N-methyl-^3H]-nicotine]", "values": [{"measurement": "time at which maximum binding activity is attained", "setting": "[5]; MDA-MB-231 cells, [^3H]-nicotine 7 nM", "value": 60, "unit": "min"}, {"measurement": "Kd", "setting": "[5]; MDA-MB-231 cells, saturation binding 2 hours at 37° C., read-out: dissociation constant (Kd) of [^3H]-nicotine binding", "value": 3, "unit": "nM"}, {"measurement": "[^3H]-nicotine bound by parental cells", "setting": "[5]; parental MDA-MB-231 cells", "value": 489.7, "unit": "DPM"}]}
{"smiles": "CN1CCCC1c1cccnc1", "note": "(stereo not shown) [nicotine]", "values": [{"measurement": "difference in mean OD540 nm vs control (DMSO)", "setting": "[1]", "value": 0.58}, {"measurement": "mean OD540 nm", "setting": "[1]", "value": 1.35}, {"measurement": "induction of cell proliferation", "setting": "[2]", "value": "induced cell proliferation was observed only in the MCF-10A (DOX+) cell line"}, {"measurement": "difference in tumor volume, with vs without nicotine", "setting": "[6]; +DOX", "value": 235.4, "unit": "mm^3"}, {"measurement": "tumor volume", "setting": "[6]; +DOX", "value": 501.6, "unit": "mm^3"}, {"measurement": "difference in tumor volume, with vs without nicotine", "setting": "[6]; −DOX", "value": 277.4, "unit": "mm^3"}, {"measurement": "tumor volume", "setting": "[6]; −DOX", "value": 898.6, "unit": "mm^3"}, {"measurement": "no. of colonies in parental cells", "setting": "[3]", "value": 341, "unit": "colonies"}, {"measurement": "tumor weight in nicotine-fed mice", "setting": "[7]; mice injected with MDA-MB-231 (231) or Sc cells (FIG. 3D)", "value": "heavier"}, {"measurement": "tumor volume at 6 weeks treatment", "setting": "[7]; [10]", "value": 2993.2, "unit": "mm^3"}, {"measurement": "tumor weight at 6 weeks", "setting": "[7]; [10]", "value": 4.38, "unit": "g"}, {"measurement": "colonies formed in soft agar", "setting": "[4]; MCF-10A (DOX−) cells, nicotine 10 μM for 60 days", "value": "six"}]}
